# Assay results taken from patent US7345091B2, “Carotenoid ether analogs or derivatives for the inhibition and amelioration of disease” (Cardax Pharmaceuticals, Inc., priority 2002, dated 2008).
# Tests used:
# [1] = From the text: FIG. 27 and FIG. 28 depict the results of spectral analysis after flash photolysis of the formation of triplet and carotenoid cation radical states for non-esterified, free astaxanthin 2E and the diacid disuccinate astaxanthin derivative XV were obtained. Formation of the carotenoid cation radical is a measure of the potential biophysical behavior of the novel derivative as an antioxidant. If a derivative retains the antioxidant behavior of non-esterified, free astaxanthin, then all previously documented (i.e. literature precedent) therapeutic applications for astaxanthin can be reasonably assumed for the novel derivative, including at least singlet oxygen quenching, lipid peroxidation chain-breaking, and/or direct radical scavenging.
# In this experiment, nitronaftalin (NN) was used as the photosensitizer. After irradiation, the excited sensitizer (NN*) forms a sensitizer triplet (^3NN). When ^3NN encounters a carotenoid, energy and electron transfer reactions with ^3NN take place. The resulting relatively stable ^3car and carotenoid cation radicals (car*^+) are detected by characteristic absorption bands. Non-polar solvents (e.g. hexane) favor the formation of ^3car, and more polar solvents (alcohols, water) favor the formation of the car.^+. The anion radical of the sensitizer (NN.^−) is not typically seen because of a low absorption coefficient.
# The ^3car decays rather quickly. After 15 μs, half of the ^3car has disappeared, and after 50 μs, no ^3car is left.
# The spectrum of asta 2E is nearly identical to that of astaCOOH XV. After 50 μs, the ^3car has disappeared. During this time frame, the car.^+ is stable. Negative and positive peaks in the absorption spectra for astaCOOH XV and asta 2E are superimposable.
# [2] = test system: C3H10T1/2 cell culture model; assay: Inhibition of MCA-induced neoplastic transformation; type: cell-based, mouse; conditions: for percent reduction of MCA-induced neoplastic transformation: 3×10^-6 M in THF
# Method: Non-esterified, free astaxanthin 2E is generated in the mammalian gut after oral administration of esterified astaxanthin. Only free astaxanthin is found in mammalian plasma and solid organs. […] Inherent esterase activity of serum albumin, and the action of promiscuous esterases in serum and solid organs rapidly generates non-esterified, free astaxanthin after parenteral administration of the disodium disuccinate astaxanthin derivative (XVI). […] An experiment was performed to assess the ability of non-esterified, free astaxanthin (the in vivo final cleavage product of the disodium salt disuccinate astaxanthin derivative (XVI), tested as the all-trans mixture of stereoisomers 3S,3′S, meso, and 3R,3′R in a 1:2:1 ratio) to inhibit neoplastic transformation in the C3H10T1/2 cell culture model developed in the lab of the late Charles Heidelberger (Reznikoff, 1973).
# This experiment was conducted according to protocols established previously (Bertram, 1991 and Pung, 1988). In brief, the 10T1/2 cells, derived from mouse embryonic fibroblasts, were seeded at a density of 10^3 cells/60 mm dish in Eagle's Basal Media (BME) (Atlanta Biologicals, Atlanta, Ga.), supplemented with 4% fetal calf serum (Atlanta Biologicals, Atlanta, Ga.) and 25 μg/mL gentamicin sulfate (Sigma, St. Louis, Mo.). Cells were treated 24 hours later with 5.0 μg/ml MCA (Sigma, St. Louis, Mo.) in acetone or with 0.5% acetone (final concentration) as a control. Media was changed 24 hours after MCA treatment. Cells were treated with astaxanthin in THF or with retinol acetate in acetone 7 days later, and re-treated every 7 days for 4 weeks. Other dishes were treated with the appropriate solvent controls. After 5 weeks from the start of the experiment, cells were fixed with methanol and stained with 10% Giemsa stain (Sigma, St. Louis, Mo.) and scored for type II and type III foci as per Reznikoff (1973).
# superoxide anion = assay: Superoxide anion scavenging by EPR (DEPMPO spin trap) in phorbol ester-stimulated isolated neutrophils; type: cell-based, human; conditions: Homo sapiens, Neutrophil, Solvent DMSO, 0.1 mM; read-out: Mean (% inhibition) of superoxide anion signal
# Method: In an experiment, neutrophils were isolated on a Percoll gradient from whole blood from a human volunteer. The isolated neutrophils were then re-suspended in phosphate-buffered saline, and maximally stimulated with phorbol ester to induce the respiratory burst and production of superoxide anion. To the solution of activated human neutrophils, the disodium salt disuccinate astaxanthin derivative XVI was added at various concentrations, and the superoxide signal [as measured with electron paramagnetic resonance (EPR) spectroscopy] was subsequently measured. […] The disodium salt disuccinate astaxanthin derivative XVI tested at 100 μM scavenged 28% of the total signal. At 3 mM, almost no superoxide signal remained. […] In addition to reducing the superoxide anion signal important in ischemia-reperfusion injury, it is also likely that myocardial salvage can be achieved with the described carotenoid derivative, as superoxide anion plays a major role in tissue injury and death during prolonged myocardial ischemia. In a third experiment, neutrophils were again isolated on a Percoll gradient from whole blood from a second human volunteer. The isolated neutrophils were then re-suspended in phosphate-buffered saline, and maximally stimulated with phorbol ester to induce the respiratory burst and production of superoxide anion. […] Astaxanthin 2E was dissolved in HPLC grade dimethylsulfoxide (DMSO; Sigma-Aldrich, St. Louis, Mo.). The disodium disuccinate derivatives XVI of astaxanthin 2E were tested separately in […] formulations: statistical mixture of stereoisomers (as for astaxanthin, above, a 1:2:1 mixture of all-E; labeled as “mixture” in all tables and figures); 3S,3'S, and 3R,3'R (optical isomers or enantiomers); and meso (mixture of identical 3S,3'R and 3'S,3R; diastereomers of the enantiomeric pair). […] The disuccinate derivatives were first tested at the appropriate final concentrations in pure aqueous solution (deionized water) from stock solutions of 10 mM. Each of the four disuccinate derivatives were then tested from stock solutions prepared in a 1:2 mixture of ethanol (final concentration of EtOH in stock solution 331⁄3%; final concentration in isolated neutrophil assay 0.3%; HPLC grade ethanol, Sigma-Aldrich, St. Louis, Mo.) at 10 mM. […] Metaphore® Pharmaceuticals, Inc., St. Louis, Mo.) were also performed. Human polymorphonuclear leukocytes (PMNs) were isolated from freshly sampled venous blood of a single volunteer by Percoll density gradient centrifugation, which yielded PMNs with a purity of >95%. Each 10 mL of whole blood was mixed with 0.8 mL of 0.1 M EDTA and 25 mL of saline. The diluted blood was layered over 9 mL of Percoll at a specific density of 1.080 g/mL. After centrifugation at 400×g for 20 min at 20° C., the plasma, mononuclear cell, and Percoll layers were removed. Erythrocytes were lysed by addition of 18 mL of ice-cold water for 30 s, followed by 2 mL of 10× PIPES buffer (25 mM PIPES, 110 mM NaCl, and 5 mM KCl, titrated to pH 7.4 with NaOH). Cells were pelleted at 4° C., the supernatant was decanted, and the procedure was repeated. After the second hypotonic lysis, cells were washed twice with PAG buffer (PIPES buffer containing 0.003% human serum albumin and 0.1% glucose). Afterward, PMNs were counted by light microscopy on a hemocytometer. The final pellet was then suspended in PAG-CM buffer (PAG buffer with 1 mM CaCl2 and 1 mM MgCl2). All EPR measurements were performed using a Bruker ER 300 EPR spectrometer operating at X-band with a TM110 cavity. The microwave frequency was measured with a Model 575 microwave counter (EIP Microwave, Inc., San Jose, Calif.). To measure O^ -2 generation from phorbol-ester (PMA)-stimulated PMNs, EPR spin-trapping studies were performed using DEPMPO (Oxis, Portland, Oreg.) at 10 mM. 1×10^6 PMNs were stimulated with PMA (1 ng/mL) and loaded into capillary tubes for EPR measurements. […]
# [3] = read-out: antioxidant ED50 (protective level); cited from earlier work
# [4] = human, in vivo, po, 1.1 mg/kg; cited from earlier work
# [5] = test system: connexin 43 protein expression; assay: Induction of connexin 43 protein expression (Western blot, 96 hours); type: cell-based, mouse; conditions: 10^-8 M, 96-hour time point
# Method: In brief, mouse embryonic fibroblast CH3/10T^1/2 cells were treated with the following formulations in a 4 mL cell culture system with media containing 2% calf serum: • 1. TTNPB [p-(E)-2-(5,6,7,8-tetrahydro-5,5,8,8-tetramethyl-2-napthyl) propenyl benzoic acid] 10^−8 M in acetone [positive control for connexin 43 upregulation (4 μL in 4 mL] • 2. Disodium salt disuccinate astaxanthin derivative XVI/H2O at 10^−5 M (40 μl in 4 mL) • 3. Disodium salt disuccinate astaxanthin derivative XVI/H2O at 10^−6 M (4 μl in 4 mL) • 4. Disodium salt disuccinate astaxanthin derivative XVI/H2O at 10^−7 M (1:10 dilution and 4 μl in 4 mL) • 5. Disodium salt disuccinate astaxanthin derivative XVI H2O/ethanol [EtOH] formulation at 10^-5 M (40 μl in 4 mL) • 6. Disodium salt disuccinate astaxanthin derivative XVI H2O/EtOH formulation at 10^−6 M (4 μl in 4 mL) • 7. Sterile H2O control (40 μl in 4 mL) • 8. Sterile H2O/EtOH control (20 μL EtOH, 20 μL H2O in 4 mL) • 9. Media control (4 mL)
# Cells were harvested after 96 hours incubation with test compounds and control solutions. All media solutions were identical in color, however after treatment with the disodium salt disuccinate astaxanthin derivative XVI at both 10^−5 dilutions, the color subjectively changed to an orange-red color. Cells treated with TTNPB appeared striated with light microscopy, evidence of differentiation to myocytes, an expected result in this cell culture system. After harvest and pelleting of cells, tubes containing both 10^−5 disodium salt disuccinate astaxanthin derivative XVI solutions were bright red; both 10^−6 dilution tubes were a pink color. As documented previously for other colored carotenoids, this was subjective evidence for cellular uptake of the test compounds.
# Cells were then lysed, and 50 μg of each protein was electrophoresed on a 10% polyacrylamide gel. The gel was then transferred to a nitrocellulose filter. Total protein was assayed with Coomassie blue staining (FIG. 29; lanes 6, 7, and 9 were smeared secondary to gel transfer, and were not included in the quantitative comparison [FIG. 31)]. […]
# C3H/10T1/2 cells = assay: Assembly of Cx43 into plaques (immunofluorescent staining); type: cell-based, mouse; conditions: 1×10^-8 M in tetrahydrofuran, 4 days
# Method: In this experiment expression and assembly of Cx43 into plaques was assessed by immunofluorescent staining. Procedures were essentially as described in Zhang (1992). Briefly, confluent cultures of C3H/10T1/2 cells were grown on Permanox plastic 4-chamber slides (Nalge Nunc International, Naperville, Ill.) and treated for 4 days with: (1) the disodium salt disuccinate astaxanthin derivative XVI (statistical mixture of stereoisomers) dissolved in a 1:2 EtOH/H2O formulation; (2) the retinoid TTNPB at 1×10^−8 M in tetrahydrofuran as a positive control; or (3) 1:2 EtOH/H2O as a solvent control. Cells were fixed with −20° C. methanol overnight, washed in buffer, blocked in 1% bovine serum albumin (Sigma, St, Louis, Mo.) in PBS, and incubated with the rabbit polyclonal anti-Cx43 antibody (Zymed, San Francisco, Calif.) as in (2) above and detected with Alexa568 conjugated anti-rabbit secondary (Molecular Probes, Eugene, Oreg.). Slides were illuminated with […] light and images were acquired at a wavelength of 600 nm using the Zeiss Axioscope light microscope and a Roper Scientific cooled CCD camera. […] In cultures treated with solvent as control, such immunoreactive plaques were infrequent and were smaller than those detected in cells treated with the statistical mixture of stereoisomers of the disodium salt disuccinate astaxanthin derivative XVI or with TTNPB as positive control. […]
SMILES,stability of the carotenoid cation radical (car.+) [1],"time after which no 3car (carotenoid triplet) is left ([1]; acetonitrile, sensitizer NN) [μs]",percent reduction of MCA-induced neoplastic transformation ([2]; 4-week treatment),"percent reduction of MCA-induced neoplastic transformation ([2]; 4-week treatment, listed as Non-esterified, free astaxanthin) [%]","numbers of MCA-induced transformed foci ([2]; 3×10^-6 M, 1×10^-6 M and 3×10^-7 M, 4-week treatment, vs MCA + THF control)","potency as inhibitor of transformation compared with previously tested carotenoids ([2]; comparison with data of Bertram, 1991 (1×10^-5 M))",inhibition at 100 µM (superoxide anion) [%],EC50 [3] [nM],"Cmax, plasma levels [4] [ng/mL]",induction of connexin 43 expression [5],assembly of immunoreactive Cx43 into plaques (C3H/10T1/2 cells)
"CC1=C(/C=C/C(C)=C/C=C/C(C)=C/C=C/C=C(C)/C=C/C=C(C)/C=C/C2=C(C)C(=O)C(O)CC2(C)C)C(C)(C)CC(O)C1=O (centres unmarked) [Astaxanthin 2E, Astaxanthin]",stable,50,complete suppression of the transformed phenotype,100,concentration-dependent decrease,far more potent inhibitor of transformation than either β-carotene or canthaxanthin,28,200,1300,,
"C/C(=C\c1ccc(C(=O)O)cc1)c1ccc2c(c1)C(C)(C)CCC2(C)C [TTNPB, p-(E)-2-(5,6,7,8-tetrahydro-5,5,8,8-tetramethyl-2-napthyl) propenyl benzoic acid, reference compound]",,,,,,,,,,effective at inducing connexin 43 expression,exhibited assembly of immunoreactive Cx43 into plaques
